This test deals with Maize. Put plainly: Preemergence phytotoxic action of the herbicide of formula I and of mixtures of herbicide and safener of formula II on maize. The test is classed as in vivo. As to conditions: no safener, 22 days. From the text:
Preemergence Phytoxic Action of the Herbicide of Formula I and of the Mixtures of Herbicide and Safener of Formula II on Maize
Maize is sown in standard soil in plastic pots. Immediately after sowing, the pots are sprayed with an aqueous suspension of the test substances (500 l of water/ha) prepared from one of the above formulations 1 to 8. The concentration of herbicide of formula I is 4000, 3000 and 2000 g/ha. The safener No. 1.006 is applied in a ratio to the herbicide of 1:18, 1:24 and 1:30. The test plants are afterwards cultivated in a greenhouse under optimum conditions. The phytotoxic action of the herbicide on the maize (percentage phytotoxicity) is evaluated after a test duration of 22 days.

Take `CCc1cccc(C)c1N(C(=O)CCl)[C@@H](C)COC` [formula I, aRS,1′S(−)N-(1′-methyl-2′-methoxyethyl)-N-chloracetyl-2-ethyl-6-methylaniline]: the “% Phytotoxicity” value (herbicide of formula I 4000 g/ha, greenhouse) turned out to be 65%; the “% Phytotoxicity” value (series b), herbicide of formula I 2000 g/ha (so in the source)) was 55%; the “% Phytotoxicity” value (series c), herbicide of formula I 2000 g/ha) amounted to 25%.

Source of the values: US20030224937A1, “Selective herbicidal composition” (priority 1994, published 2003).
